Source: US20040248764A1 (priority 2001, published 2004)
Values after ≈ are worked out from the molar mass of the structure shown. Values joined by “and” are separate entries in the source; they are usually repeats but may differ in a detail not shown here. Equal values may be shown once. Read-outs that look alike come from different tables or passages of the source.

Tests used:
[1] = system: aster yellow phytoplasma (AYP); assay type: in vivo, Catharanthus roseus
grape = settings: in vivo
Xylella fastidiosa = assay type: in vivo, grapevines
healthy vines = settings: in vivo
[2] = system: Xylella fastidiosa strains; assay: microbe, parasite or virus in culture; assay type: cell-based; settings: for MIC: Xylella fastidiosa
[3] = system: X. fastidiosa-infected grapevines; settings: in vivo
S. apis = assay type: cell-based
S. floricola = assay type: cell-based
E. coli = settings: cited from earlier work
Xylella = assay type: cell-based
S. melliferum = assay type: cell-based
Spiroplasma citri = assay type: cell-based
[4] = system: Xylella sp. strains Shiraz, Melody, Coyaga; assay type: cell-based; settings: 10^8 CFU
[5] = system: X. fastidiosa-infected grapevines; settings: in vivo; remark: listed apart in the source
Mycoplasma iowae = assay type: cell-based

Q: Which “AYP symptoms of treated plants” value ([1]; 500 ppm citral in water, 500 mL per plant Day 8 and Day 14, three plants, as of Day 108) does the source give for `CC(C)=CCCC(C)=CC=O` [citral, 3,7-dimethyl-2,6-octadien-1-al] here?
A: remained symptomless

Q: And the “AYP symptoms of treated periwinkles” value ([1]; 500 ppm, 500 mL per plant Day 8 and Day 15, three plants, as of Day 174)?
A: remained symptomless

Q: And the “delay of symptom development” value ([1]; in vivo)?
A: 22 days

Q: And the “concentration at which phytotoxic” value (grape; grape)?
A: approximately 5000 ppm

Q: What about the phytotoxicity in grape (grape) of the same compound?
A: phytotoxicity

Q: And the “treated vines positive for bacteria (isolation and ELISA)” value (Xylella fastidiosa; other vines, treated Day 206 and Day 213, sampled on Day 252)?
A: Four out of 15

Q: And the “treated vines positive for presence of bacteria (isolation and ELISA)” value (Xylella fastidiosa; treated Day 0 and Day 7, sampled on Day 252)?
A: Three out of 15

Q: What about the “weekly observations of treated healthy vines” value (healthy vines) of the same compound?
A: no phytoplasma on any plants

Q: What about the “effect on cells of X. fastidiosa strains” value ([2]; 250 ppm, 24-hr. treatment) of the same compound?
A: killed cells of all 11 strains

Q: What about the MIC ([2]; 4 grape strains, 2 sycamore strains, and 1 peach strain) of the same compound?
A: 125 µg/mL (≈ 821 µM)

Q: And the MIC ([2]; 24 h, strain 2#6, Plum leaf scald)?
A: 62.5 µg/mL (≈ 411 µM)

Q: What about the MIC ([2]; 24 h, strain 3SV, Pierce's disease of grapevine) of the same compound?
A: 125 µg/mL (≈ 821 µM)

Q: And the MIC ([2]; 24 h, strain 4#5, Phony disease of peach)?
A: 125 µg/mL (≈ 821 µM)

Q: What about the MIC ([2]; 24 h, strain 4BD2, Pecan leaf scorch) of the same compound?
A: 62.5 µg/mL (≈ 411 µM)

Q: What about the MIC ([2]; 24 h, strain #6, Oleander leaf scorch) of the same compound?
A: 62.5 µg/mL (≈ 411 µM)

Q: What about the MIC ([2]; 24 h, strain Cayuga, Pierce's disease of grapevine) of the same compound?
A: 125 µg/mL (≈ 821 µM)

Q: And the MIC ([2]; 24 h, strain Melody, Pierce's disease of grapevine)?
A: 125 µg/mL (≈ 821 µM)

Q: And the MIC ([2]; 24 h, strain SLS#61, Sycamore leaf scorch)?
A: 125 µg/mL (≈ 821 µM)

Q: And the MIC ([2]; 24 h, strain SLS-DC, Sycamore leaf scorch)?
A: 125 µg/mL (≈ 821 µM)

Q: And the MIC ([2]; 24 h, strain Shiraz, Pierce's disease of grapevine)?
A: 125 µg/mL (≈ 821 µM)

Q: What about the MIC ([2]; 24 h, strain Yugo, Pierce's disease of grapevine) of the same compound?
A: 62.5 µg/mL (≈ 411 µM)

Q: What about the MIC ([2]; strains from grape, plum, pecan, and oleander) of the same compound?
A: 62.5 µg/mL (≈ 411 µM)

Q: What about the “average branch length longer than control vines” value [3] of the same compound?
A: ~6 inches

Q: What about the color changing units (S. apis) of the same compound?
A: 10^9 CCUs and 10^7 CCUs and 10^3 CCUs

Q: And the color changing units (S. floricola)?
A: 10^9 CCUs and 10^6 CCUs

Q: And the “citral in growth media that reduced the concentration of E. coli” value (E. coli)?
A: more than 0.01%

Q: What about the “citral in growth media with bactericidal effect” value (E. coli) of the same compound?
A: 0.08%

Q: And the “effect on Xylella” value (Xylella; 62.5 ppm citral)?
A: No complete kill but get stasis

Q: And the “kill of Xylella” value (Xylella; 125 ppm citral)?
A: 100% kill

Q: And the “kill of Xylella” value (Xylella; 500 ppm citral)?
A: 100% kill

Q: And the “cells that survived the treatment” value (S. melliferum)?
A: no cells

Q: And the “cells that survived the treatment” value (Spiroplasma citri)?
A: no cells

Q: And the “Xylella growth (CFU)” value ([4]; strain Coyaga, 3.25 ppm)?
A: TNTC

Q: What about the “Xylella growth (CFU)” value ([4]; strain Coyaga, 62.5 ppm) of the same compound?
A: TNTC

Q: And the “Xylella growth (CFU)” value ([4]; strain Melody, 3.25 ppm)?
A: TNTC

Q: What about the “Xylella growth (CFU)” value ([4]; strain Melody, 62.5 ppm) of the same compound?
A: TNTC

Q: What about the “Xylella growth (CFU)” value ([4]; strain Shiraz, 3.25 ppm) of the same compound?
A: TNTC

Q: What about the “Xylella growth (CFU)” value ([4]; strain Shiraz, 62.5 ppm) of the same compound?
A: TNTC**

Q: And the average fruit yield [5]?
A: about 4.8 lbs of fruit per vine

Q: And the average increased yield [5]?
A: about 6.25%

Q: What about the color changing units (Mycoplasma iowae) of the same compound?
A: 10^8 CCUs and 10^7 CCUs and 10^6 CCUs and 10^5 CCUs and 10^4 CCUs

Q: What about the “kill of cells by the treatment” value (Mycoplasma iowae) of the same compound?
A: not enough to kill
